Values quoted from earlier work, collected in US8858979B1, “Service induced byproducts for localized drug delivery in orthopaedic implants” (Clemson University, priority 2011, dated 2014).

System: cell proliferation
Settings: reported data, estimated

NCCCC(O)(P(=O)([O-])O)P(=O)(O)O.[Na+] [alendronate, alendronate sodium]
concentration that can inhibit cell proliferation: about 10^−4 M
